Test results as given in US10023538B2, “Compounds, compositions and associated methods comprising 3-aryl quinolines” (Oregon Health & Science University, priority 2012, dated 2018).
Like-named read-outs stand apart in the source and are kept apart here.

Key:
P. falciparum strain D6 = assay: Antiplasmodial fluorescence-based SyBr Green assay, strain D6; format: cell-based, Plasmodium falciparum
Description: (§1) The IC50 values listed in Table 1 were determined by the fluorescence-based SyBr Green assay described in Smilkstein (Smilkstein M, Antimicrob Agents Chemother 48, 1803-1806 (2004)). Values are the mean of at least two experiments, each performed in triplicate. […] NT=not tested.

P. falciparum strain Dd2 = assay: Antiplasmodial fluorescence-based SyBr Green assay, strain Dd2; format: cell-based, Plasmodium falciparum
Description: as §1

P. falciparum strain 7G8 = assay: Antiplasmodial fluorescence-based SyBr Green assay, strain 7G8; format: cell-based, Plasmodium falciparum
Description: as §1

[1] = system: P. falciparum strain Tm90.C2B; assay: Antiplasmodial activity against strain Tm90.C2B; format: cell-based, Plasmodium falciparum
Description: as §1
Furthermore, Compound 1 was evaluated against the strain Tm90.C2B.

P. yoelii = assay: In vivo efficacy, P. yoelii mouse model of malaria (Strain K model); design: species or system female CF1 mice; conditions: P. yoelii / CF1 mice
Description: The efficacy of Compound 1 in vivo using a P. yoelii mouse model of malaria (Strain K model) was studied. Female CF1 mice were inoculated intravenously with 1-2 million infected red blood cells obtained from infected donor animals. Infected cells were collected then randomly sorted into groups of four mice on Day 0. Drug administration began on Day 1. […] Both drugs were administered daily by gavage as the dihydrochloride salt dissolved in 100 μl of water for Days, 1, 2, 3, and 4. Blood films were prepared on Day 5 (the day after the final drug dose), fixed in methanol, stained with Giemsa, and viewed microscopically to assess parasitemia.

[2] = Cytotoxicity vs. murine splenic lymphocytes; format: cell-based; conditions: mouse
hERG potassium channel = hERG potassium channel (Homo sapiens, UniProt Q12809); assay: hERG channel inhibition, QPatch HT automatic parallel patch clamp; format: cell-based; conditions: hERG current expressed in mammalian cells, room temperature, tested at 1, 4, 12 μM in duplicate
[3] = Heme binding affinity in solution (UV/visible titration, NMR); conditions: 20 mM phosphate buffer, pH 7.0, 25° C.; titration and NMR
Description: The binding affinity of Compound 1 and heme in solution was assessed as described by Kelly (Kelly, J X et al, Antimicrob Agents Chemother 46, 144-150 (2002); Kelly J X et al, Mol Biochem Parasitol 123, 47-54 (2002)). This assay correlates heme binding affinity and the mode of binding (i.e., binding to heme monomer or dimer) to intrinsic antimalarial activity in vitro and in vivo.
Association constants for heme-drug complexes were determined with all titrations conducted under aqueous conditions in 20 mM phosphate buffer, at pH 7.0 and 25° C. Titrations with compounds were performed by successive addition of aliquots of a 1 mM stock solution to a 10 μM heme solution at constant pH. All UV/visible spectral data was analyzed digitally with absorbance readings and concentrations corrected for dilution effects. The resulting titration curves were analyzed with Hill plot (Cantor and Schimmel, Biophysical Chemistry, W H Freeman and Co, New York, 1980) and non-linear curve fitting methods (Connors, Chemical Kinetics, VCH Publishers, New York, 1990). Titration curves were fit to the most accurate binding isotherm and stoichiometry.
Heme:drug interaction was assessed by NMR. NMR investigations involving Compound 1 binding to heme were performed as described in Kelly (Kelly, et al, supra).

P. falciparum strains = assay: Antiplasmodial IC50 across P. falciparum strains (average / range); format: cell-based, Plasmodium falciparum
Description: as §1

[4] = Plasmodium falciparum, D6; read-out: IC50 Values (nM) Strain D6
[5] = Plasmodium falciparum, P. falciparum Dd2, multidrug resistant, mean of at least two experiments in triplicate, read-out: IC50 Values (nM) Strain Dd2
[6] = Plasmodium falciparum, P. falciparum 7G8, multidrug resistant, mean of at least two experiments in triplicate, read-out: IC50 Values (nM) Strain 7G8
[7] = Plasmodium falciparum, P. falciparum Tm90.C2B, multidrug and atovaquone resistant, unit inferred, read-out: IC50 value against strain Tm90.C2B
[8] = Plasmodium falciparum, D6, read-out: IC50 Values (nM) Strain D6
[9] = Plasmodium falciparum, DD2, read-out: IC50 Values (nM) Strain Dd2
[10] = Plasmodium falciparum, 7G8, read-out: IC50 Values (nM) Strain 7G8
[11] = P. falciparum D6, chloroquine sensitive; mean of at least two experiments in triplicate; read-out: IC50 Values (nM) Strain D6
[12] = P. falciparum Dd2, multidrug resistant, mean of at least two experiments in triplicate, read-out: IC50 Values (nM) Strain Dd2
[13] = P. falciparum 7G8, multidrug resistant, mean of at least two experiments in triplicate, read-out: IC50 Values (nM) Strain 7G8

Chain of hERG potassium channel (Q12809 whole entry): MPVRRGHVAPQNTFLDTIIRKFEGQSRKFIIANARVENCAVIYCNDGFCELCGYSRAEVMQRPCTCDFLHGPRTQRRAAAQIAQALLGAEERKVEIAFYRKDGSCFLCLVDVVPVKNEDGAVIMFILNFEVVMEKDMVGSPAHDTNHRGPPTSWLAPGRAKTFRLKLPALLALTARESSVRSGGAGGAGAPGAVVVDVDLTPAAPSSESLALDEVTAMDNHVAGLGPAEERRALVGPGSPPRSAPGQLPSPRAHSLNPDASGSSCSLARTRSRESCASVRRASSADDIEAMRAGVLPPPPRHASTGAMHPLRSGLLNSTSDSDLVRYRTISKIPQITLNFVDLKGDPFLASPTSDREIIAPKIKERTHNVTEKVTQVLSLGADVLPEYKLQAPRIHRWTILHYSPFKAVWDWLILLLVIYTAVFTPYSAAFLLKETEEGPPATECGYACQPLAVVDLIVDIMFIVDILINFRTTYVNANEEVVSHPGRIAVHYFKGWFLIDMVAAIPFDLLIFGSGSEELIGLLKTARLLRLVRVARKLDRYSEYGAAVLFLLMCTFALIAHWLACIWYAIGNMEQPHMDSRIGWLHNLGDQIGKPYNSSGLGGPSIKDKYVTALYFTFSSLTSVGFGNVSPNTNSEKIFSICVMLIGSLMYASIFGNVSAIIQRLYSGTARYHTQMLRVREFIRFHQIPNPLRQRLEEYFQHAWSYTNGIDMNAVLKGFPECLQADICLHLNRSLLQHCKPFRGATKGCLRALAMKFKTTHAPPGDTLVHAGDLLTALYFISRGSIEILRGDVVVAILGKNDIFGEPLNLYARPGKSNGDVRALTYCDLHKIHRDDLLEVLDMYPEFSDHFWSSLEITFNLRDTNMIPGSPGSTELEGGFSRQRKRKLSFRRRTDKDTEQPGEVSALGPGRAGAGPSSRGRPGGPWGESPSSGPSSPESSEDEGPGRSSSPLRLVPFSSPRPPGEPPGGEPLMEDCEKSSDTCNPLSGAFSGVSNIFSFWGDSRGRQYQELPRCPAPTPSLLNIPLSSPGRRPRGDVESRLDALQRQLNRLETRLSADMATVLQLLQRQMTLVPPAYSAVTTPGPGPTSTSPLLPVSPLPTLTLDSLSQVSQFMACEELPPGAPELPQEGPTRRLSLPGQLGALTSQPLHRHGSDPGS

Row | Compound | IC50 (P. falciparum strain D6; [4]) [nM] | IC50 (P. falciparum strain Dd2; [5]) [nM] | IC50 (P. falciparum strain 7G8; [6]) [nM] | other results
1 | O=C1C(O)=C([C@H]2CC[C@H](c3ccc(Cl)cc3)CC2)C(=O)c2ccccc21 [Atovaquone, reference compound] | 0.1 | 0.1 | 0.1 | IC50 [1, 7]: 7700 nM
2 | CCN(CC)CCCC(C)Nc1ccnc2cc(Cl)ccc12 (stereo not shown) [Chloroquine, reference compound] | – | – | – | IC50 (P. falciparum strain D6; [8]): 9.2 nM; IC50 (P. falciparum strain Dd2; [9]): 120 nM; IC50 (P. falciparum strain 7G8; [10]): 78 nM; IC50 ([1]; Plasmodium falciparum, TM90, read-out: IC50 value against strain Tm90.C2B): 106 nM; Cure of animals (P. yoelii; at dosages as high as 64 mg/kg/day): did not cure any of the animals
3 | CC(C)(C)NCCCNc1c(-c2ccc(OC(F)(F)F)cc2)cnc2cc(Cl)ccc12 [Compound 1, N1-(tert-butyl)-N3-(7-chloro-3-(4-(trifluoromethoxy)phenyl)-quinolin-4-yl)-propane-1,3-diamine] | 0.9 | 1.4 | 1.3 | IC50 [1, 7]: 1.3 nM; ED50 (P. yoelii; gavage daily Days 1-4, parasitemia Day 5, drugs given as salts): 0.25 mg/kg/day; Cure of animals (P. yoelii; at 16 and 64 mg/kg/day): cured all animals; IC50 [2]: 4980 nM; IC50 (hERG potassium channel): 4000 nM; Affinity for free heme [3]: strong affinity for free heme; IC50 (P. falciparum strains; Plasmodium falciparum, average over strains, read-out: Avg IC50 values vs P. falciparum strains): 1.2 nM
4 | CC(C)(C)NCCCNc1c(-c2ccc(Cl)cc2)cnc2cc(Cl)ccc12 [Compound 2] | 8 | 15 | 5.8 | –
5 | CC(C)(C)NCCCNc1c(-c2ccccc2)cnc2cc(Cl)ccc12 [Compound 3] | 8.7 | 17 | 6.4 | –
6 | CC(C)(C)NCCCNc1c(-c2ccc(C(F)(F)F)cc2)cnc2cc(Cl)ccc12 [Compound 4] | 4.8 | 11.9 | 9.7 | –
7 | CC(C)(C)NCCCNc1c(-c2ccc(C(F)(F)F)nc2)cnc2cc(Cl)ccc12 [Compound 5] | 55.2 | 89 | 132 | –
8 | CC(C)(C)NCCCNc1c(-c2ccc(Oc3ccc(OC(F)(F)F)cc3)cc2)cnc2cc(Cl)ccc12 [Compound 6] | 2.3 | 3.3 | 1.6 | –
9 | CC(C)(C)NCCCNc1c(-c2ccc(-c3ccccc3)cc2)cnc2cc(Cl)ccc12 [Compound 7] | 0.9 | 2.9 | 1.4 | –
10 | CC(C)(C)NCCCNc1c(-c2ccc(-c3ccc(OC(F)(F)F)cc3)cc2)cnc2cc(Cl)ccc12 [Compound 8] | – | – | – | IC50 (P. falciparum strain D6; [11]): 5.3 nM; IC50 (P. falciparum strain Dd2; [12]): 5.9 nM; IC50 (P. falciparum strain 7G8; [13]): 8.3 nM
11 | CC(C)(C)NCCCNc1c(-c2ccc(F)cc2)cnc2cc(Cl)ccc12 [Compound 10] | – | – | – | IC50 (P. falciparum strain D6; [11]): 13.1 nM; IC50 (P. falciparum strain Dd2; [12]): 11.7 nM; IC50 (P. falciparum strain 7G8; [13]): 32.8 nM
12 | COc1ccc(-c2cnc3cc(Cl)ccc3c2NCCCNC(C)(C)C)cc1 [Compound 11] | 9.5 | 11.7 | 20.6 | –
13 | CN(C)c1ccc(-c2cnc3cc(Cl)ccc3c2NCCCNC(C)(C)C)cc1 [Compound 12] | 5.1 | 7 | 11.7 | –
14 | CC(C)(C)NCCCNc1c(-c2ccc(OC(F)F)cc2)cnc2cc(Cl)ccc12 [Compound 13] | 2.4 | 4.9 | 5.6 | –
15 | CC(C)(C)NCCCNc1c(-c2ccc(N3CCOCC3)cc2)cnc2cc(Cl)ccc12 [Compound 14] | 4.4 | 6.7 | 8.2 | –
16 | CC(C)(C)NCCCNc1c(-c2ccc(CN3CCOCC3)cc2)cnc2cc(Cl)ccc12 [Compound 15] | – | – | – | IC50 (P. falciparum strain D6; [11]): 0.8 nM; IC50 (P. falciparum strain Dd2; [12]): 0.9 nM; IC50 (P. falciparum strain 7G8; [13]): 0.9 nM
17 | CC(C)(C)NCCCNc1c(-c2ccc(Br)cc2)cnc2cc(Cl)ccc12 [Compound 16] | – | – | – | IC50 (P. falciparum strain D6; [11]): < 2.5 nM; IC50 (P. falciparum strain Dd2; [12]): < 2.5 nM; IC50 (P. falciparum strain 7G8; [13]): 2.5 nM
18 | CC(C)(C)NCCCNc1c(-c2ccc(C#N)cc2)cnc2cc(Cl)ccc12 [Compound 17] | 13.5 | 21.8 | 26.3 | –
19 | CC(C)(C)NCCCNc1c(-c2cccc(OC(F)(F)F)c2)cnc2cc(Cl)ccc12 [Compound 18] | < 2.5 | < 2.5 | < 2.5 | –
20 | FC(F)(F)Oc1ccc(-c2cnc3cc(Cl)ccc3c2NCCC2CCCCN2)cc1 (stereo not shown) [Compound 22] | 0.7 | 1.8 | < 2.5 | –
21 | CCN(CC)CCNc1c(-c2ccc(OC(F)(F)F)cc2)cnc2cc(Cl)ccc12 [Compound 23] | 35 | 80 | 93 | –
22 | CCN(CC)CCCNc1c(-c2ccc(OC(F)(F)F)cc2)cnc2cc(Cl)ccc12 [Compound 24] | – | – | – | IC50 (P. falciparum strain D6; [11]): 3.4 nM; IC50 (P. falciparum strain Dd2; [12]): 4.4 nM; IC50 (P. falciparum strain 7G8; [13]): 8.5 nM
23 | CCN(CC)CCCC(C)Nc1c(-c2ccc(OC(F)(F)F)cc2)cnc2cc(Cl)ccc12 (stereo not shown) [Compound 25] | 3.5 | 7.8 | 11.1 | –
24 | CC(C)(C)NCCNc1c(-c2ccc(OC(F)(F)F)cc2)cnc2cc(Cl)ccc12 [Compound 26] | – | – | – | IC50 (P. falciparum strain D6; [11]): 0.6 nM; IC50 (P. falciparum strain Dd2; [12]): 4.9 nM; IC50 (P. falciparum strain 7G8; [13]): 4.5 nM
25 | CCN(CC)CCCC(C)Nc1c2ccc(Cl)cc2nc2ccc(OC)cc12 (stereo not shown) [Quinacrine, reference compound] | – | – | – | IC50 (P. falciparum strain D6; [8]): 5 nM; IC50 (P. falciparum strain Dd2; [9]): 10 nM; IC50 (P. falciparum strain 7G8; [10]): 9 nM
26 | C=C[C@H]1C[N@@]2CC[C@H]1C[C@H]2[C@H](O)c1ccnc2ccc(OC)cc12 [Quinine, reference compound] | 19 | 87 | 30 | IC50 [1, 7]: 96 nM
27 | CCN(CC)CCCC(C)Nc1c(C)cnc2cc(Cl)ccc12 (stereo not shown) [Sontochin, reference compound] | – | – | – | IC50 (P. falciparum strain D6; [11]): 8 nM; IC50 (P. falciparum strain Dd2; [12]): 19 nM; IC50 (P. falciparum strain 7G8; [13]): 20 nM; IC50 ([1]; P. falciparum Tm90.C2B, multidrug and atovaquone resistant, unit inferred, read-out: IC50 value against strain Tm90.C2B): 19.1 nM; IC50 (P. falciparum strains; range over Table 1 strains, read-out: IC50 values against the drug resistant strains of P. falciparum (range)): 8 to 20 nM
